These results are taken from paper PMC9466600 (ACS Medicinal Chemistry Letters, 2022).

For data set [1] the following is noted: prevented HTRF measurement. Background: Time-resolved FRET reads energy transfer from a long-lived donor to a nearby acceptor.
Another data set deals with reader domain of YTHDF1 (Homo sapiens, UniProt Q9BYJ9). The following applies: from residual signal at 1 mM, Table S1.
The next data set concerns the target reader domain of YTHDF3 (Homo sapiens, UniProt Q7Z739). The settings on record: from residual signal at 1 mM, Table S1.
In data set [2] the target is m^6A reader domain of YTHDF2 (Homo sapiens, UniProt Q9Y5A9). The settings on record: for Potency/affinity for YTHDF2 (in words): HTRF, comparison within Table 1.
Chain of m^6A reader domain of YTHDF2 (Q9Y5A9 383-579): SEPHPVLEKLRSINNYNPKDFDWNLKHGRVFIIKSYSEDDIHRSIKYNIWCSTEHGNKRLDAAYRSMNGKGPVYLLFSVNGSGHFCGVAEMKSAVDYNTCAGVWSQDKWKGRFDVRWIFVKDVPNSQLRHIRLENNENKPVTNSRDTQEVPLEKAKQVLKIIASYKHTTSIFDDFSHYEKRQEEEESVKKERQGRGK

Chain of reader domain of YTHDF3 (Q7Z739 391-585): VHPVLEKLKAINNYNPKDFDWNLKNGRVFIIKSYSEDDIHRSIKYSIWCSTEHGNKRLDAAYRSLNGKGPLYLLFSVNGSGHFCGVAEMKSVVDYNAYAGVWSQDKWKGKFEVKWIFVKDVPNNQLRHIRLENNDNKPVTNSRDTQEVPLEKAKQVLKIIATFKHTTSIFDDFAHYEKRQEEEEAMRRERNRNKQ
Chain of reader domain of YTHDF1 (Q9BYJ9 361-559): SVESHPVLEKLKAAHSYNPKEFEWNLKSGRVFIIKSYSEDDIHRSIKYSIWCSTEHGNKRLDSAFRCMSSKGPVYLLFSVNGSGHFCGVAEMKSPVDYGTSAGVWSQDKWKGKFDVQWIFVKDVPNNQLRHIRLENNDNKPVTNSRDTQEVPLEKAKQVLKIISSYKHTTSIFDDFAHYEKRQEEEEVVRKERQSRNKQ

`CNc1nc(NC)c2ncn(C)c2n1` [Compound 3]: the “Solubility (in words)” value in data set [1] is given as “poor solubility”. As to `CNc1ncnc2c(C)[nH]nc12` [Compound 5], at reader domain of YTHDF1, the “Affinity for YTHDF1 (in words)” value is “weak affinity”. Also, the “Affinity for YTHDF3 (in words)” value at reader domain of YTHDF3 is on record as “weak affinity”. For `Cc1[nH]nc2c(NC3CC3)ncnc12` [Compound 6], the “Potency/affinity for YTHDF2 (in words)” value in data set [2] is reported as “lower than the one observed for its parent compound 5”. Consider `CNc1ncnc2c(-c3ccccc3)[nH]nc12` [Compound 7], for which the “Selectivity for YTHDF2 against YTHDF1 and YTHDF3 (in words)” value in data set [2] (from residual signal at 1 mM, Table S1) is listed as “modest selectivity”. With `CNc1ncnc2c(Br)[nH]nc12` [Compound 8], the “Potency/affinity for YTHDF2 (in words)” value in data set [2] was “nor any improvement in potency with respect to the methyl of 5”. For `COc1cc(=O)[nH]c(=O)[nH]1` [Compound 10, 6-methoxyuracil], the “Potency/affinity for YTHDF2 (in words)” value in data set [2] is reported as “does not provide higher affinity”. `O=c1cc(C2CC2)[nH]c(=O)[nH]1` [Compound 11, 6-cyclopropyluracil]: the “Potency/affinity for YTHDF2 (in words)” value in data set [2] is listed as “substantially higher”. Further, the Ligand efficiency in data set [2] (calculated from YTHDF2 IC50) is 0.47 kcal mol^–1 per non-hydrogen atom. Consider `CNc1ncnc2c1ncn2[C@@H]1O[C@H](CO)[C@@H](O)[C@H]1O` [m^6A, N6-methyladenosine, reference compound], for which the “Potency/affinity for YTHDF2 (in words)” value in data set [2] is reported as “not able to reduce the emitted signal even at high concentrations”.
